# Active and inactive are the calls of the source. No cut-off for these calls is given here.
# Assays:
# A-431 [1] = assay: Cytotoxicity against human A431 cells measured after 24 hrs by WST-1 assay; assay type: functional, cell-based; settings: A-431, 24 h
# A-431 [2] = assay: Radio-sensitinzing effect in human A431 cells assessed as reduction in surviving fraction incubated at 1 uM for 24 hrs with X-ray followed by measured after 7 days by Giemsa staining relative to control; assay type: functional; settings: time 8 day
# [3] = Drug metabolism in human A431 cells assessed as 2-((4-((3-Chloro-4-fluorophenyl)amino)-6-(3-morpholinopropoxy)quinazolin-7-yl)oxy)ethan-1-ol metabolite formation at 3 uM measured after 24 hrs by HPLC analysis; assay type: ADME, cell-based; settings: a-431, 24 h
# HepG2 [4] = assay: Inhibition of GLUT in human HepG2 cells assessed as inhibition of 2-NBDG uptake incubated for 20 mins by fluorescence microplate reader; assay type: cell-based; settings: dose 10-30 µM
# HepG2 [5] = assay: Inhibition of GLUT in human HepG2 cells assessed as inhibition of 2-NBDG uptake at 10 uM incubated for 20 mins by fluorescence microplate reader; assay type: cell-based
# [6] = Drug metabolism in human A431 cells assessed as 4-((4-((3-Chloro-4-fluorophenyl)amino)-6-(3-morpholinopropoxy)quinazolin-7-yl)oxy)butan-1-ol metabolite formation at 3 uM measured after 24 hrs by HPLC analysis; assay type: ADME, cell-based; settings: a-431, 24 h
# [7] = Drug metabolism in human A431 cells assessed as 3-((4-((3-Chloro-4-fluorophenyl)amino)-6-(3-morpholinopropoxy)quinazolin-7-yl)oxy)propan-1-ol metabolite formation at 3 uM measured after 24 hrs by HPLC analysis; assay type: ADME, cell-based; settings: a-431, 24 h
Drug metabolism [3],Drug metabolism [6],Drug metabolism [7],SMILES,IC50 (A-431 [1]) [µM],fold change (FC) (A-431 [2]),inhibition (HepG2 [4]),inhibition (HepG2 [5])
Metabolite_Detected,–,–,CC(=O)OC[C@H]1OC(OCCOc2cc3ncnc(Nc4ccc(F)c(Cl)c4)c3cc2OCCCN2CCOCC2)[C@H](OC(C)=O)[C@@H](OC(C)=O)[C@@H]1OC(C)=O (stereo partly specified),34.3,0.175,Dose-dependent effect,–
–,–,–,C=C1[C@@H](C)[C@H]2[C@H](Cc3ccccc3)NC(=O)[C@]23OC(=O)/C=C/[C@H](O)CCC[C@@H](C)C/C=C/[C@H]3[C@@H]1O,–,–,–,Active
–,Metabolite_Detected,–,CC(=O)OC[C@H]1OC(OCCCCOc2cc3ncnc(Nc4ccc(F)c(Cl)c4)c3cc2OCCCN2CCOCC2)[C@H](OC(C)=O)[C@@H](OC(C)=O)[C@@H]1OC(C)=O (stereo partly specified),39.4,0.202,–,–
–,–,Metabolite_Detected,CC(=O)OC[C@H]1OC(OCCCOc2cc3ncnc(Nc4ccc(F)c(Cl)c4)c3cc2OCCCN2CCOCC2)[C@H](OC(C)=O)[C@@H](OC(C)=O)[C@@H]1OC(C)=O (stereo partly specified),36.8,0.216,–,–
